Data taken from patent publication US20160355530A1, “HEPATITIS C INHIBITORS AND USES THEREOF” (AbbVie Inc., priority 2010, published 2016).
Like-named read-outs stand apart in the source and are kept apart here.

Legend:
[1] = biological target: T1, HCV NS5B polymerase 1a-H77 (Hepatitis C virus genotype 1a, UniProt P27958); experiment: biochemical; parameters: species or system HCV genotype 1a; conditions: enzyme, strain 1a H77; read-out: HCV Polymerase Strain 1a H77 IC50
T1 construct: six-histidine tag; made in house; host or cells: E. coli
T1 sequence (P27958 2421-2990): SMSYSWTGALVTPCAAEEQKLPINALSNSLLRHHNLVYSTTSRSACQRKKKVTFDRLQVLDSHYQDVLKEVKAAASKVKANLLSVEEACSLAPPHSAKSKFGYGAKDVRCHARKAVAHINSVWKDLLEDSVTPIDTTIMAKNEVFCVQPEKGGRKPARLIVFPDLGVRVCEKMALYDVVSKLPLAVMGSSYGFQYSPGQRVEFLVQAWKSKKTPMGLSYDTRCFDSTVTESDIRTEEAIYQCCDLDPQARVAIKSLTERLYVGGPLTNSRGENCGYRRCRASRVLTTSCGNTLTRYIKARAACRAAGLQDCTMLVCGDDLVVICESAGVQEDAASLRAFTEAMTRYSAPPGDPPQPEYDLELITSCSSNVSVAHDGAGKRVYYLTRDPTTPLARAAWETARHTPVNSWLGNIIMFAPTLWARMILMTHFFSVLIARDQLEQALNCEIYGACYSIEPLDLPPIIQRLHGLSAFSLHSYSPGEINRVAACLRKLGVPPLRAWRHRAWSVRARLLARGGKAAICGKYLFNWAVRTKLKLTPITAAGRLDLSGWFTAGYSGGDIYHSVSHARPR
Method in brief: (§1)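 E. coli-expressed NS5B (residues 1-570, His-tagged) transcribed a 2.1 kb HCV 1b negative-strand 3′-end RNA template (5 nM) with 20 μM CTP, 20 μM ATP and 0.284 μM [3H]UTP for 3 h at 30° C. Spermine-precipitated RNA was filter-captured and counted by scintillation; IC50 from nonlinear regression.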

[2] = test system: HCV NS5B polymerase 1a-H77-C316Y; experiment: biochemical; parameters: species or system HCV genotype 1a; conditions: ratio of enzyme IC50s, 1a H77-C316Y / 1a H77
Method in brief: as §1

[3] = biological target: T2, HCV NS5B polymerase 1b BK strain (Hepatitis C virus genotype 1b, UniProt P26663); experiment: HCV NS5B polymerase enzymatic inhibition assay, strain 1b BK; type: biochemical; conditions: enzyme, strain 1b BK; read-out: HCV Polymerase Strain 1b BK IC50
T2 construct: six-histidine tag; made in house; host or cells: E. coli
T2 sequence (P26663 2420-2989): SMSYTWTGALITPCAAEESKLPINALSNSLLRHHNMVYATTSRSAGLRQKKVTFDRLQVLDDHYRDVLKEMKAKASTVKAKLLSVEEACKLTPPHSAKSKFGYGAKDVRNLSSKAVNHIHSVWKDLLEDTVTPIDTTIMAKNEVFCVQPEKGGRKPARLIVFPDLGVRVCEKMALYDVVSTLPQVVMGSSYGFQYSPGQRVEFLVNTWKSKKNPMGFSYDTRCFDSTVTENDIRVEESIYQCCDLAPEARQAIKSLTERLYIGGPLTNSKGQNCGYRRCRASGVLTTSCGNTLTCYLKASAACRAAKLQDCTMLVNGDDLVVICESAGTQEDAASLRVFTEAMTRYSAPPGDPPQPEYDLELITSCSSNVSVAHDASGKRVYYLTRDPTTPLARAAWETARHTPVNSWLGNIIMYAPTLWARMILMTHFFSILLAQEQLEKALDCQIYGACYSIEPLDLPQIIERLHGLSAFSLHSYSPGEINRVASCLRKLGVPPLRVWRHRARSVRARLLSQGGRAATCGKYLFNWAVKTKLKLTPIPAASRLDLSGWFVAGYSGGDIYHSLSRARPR
Method in brief: as §1

[4] = test system: HCV 1b-BB7 subgenomic replicon; experiment: microbe, parasite or virus in culture; type: cell-based, HCV genotype 1b; conditions: Hepatitis C virus, stable replicon
[5] = test system: HCV 1b-Con1 subgenomic replicon; experiment: Stable replicon cell culture assay (luciferase), 1b-Con1; 5% FBS, optionally 40% human plasma; type: cell-based, HCV genotype 1b; conditions: Hepatitis C virus
[6] = strain 1b BB7, 5% FBS + 40% human plasma, read-out: 1b BB7 5% FBS + 40% Human Plasma EC50
[7] = strain 1b BB7, 5% FBS, no human plasma, read-out: 1b BB7 5% FBS EC50
[8] = strain 1b BB7, 5% FBS, read-out: 1b BB7 5% FBS EC50
[9] = strain 1b Con1, 5% FBS + 40% human plasma, read-out: 1b Con1 5% FBS + 40% Human Plasma EC50
[10] = strain 1b Con1, 5% FBS, no human plasma, read-out: 1b Con1 5% FBS EC50
[11] = strain 1b Con1, 5% FBS, read-out: 1b Con1 5% FBS EC50

SMILES: CS(=O)(=O)N(CCO)c1cc2oc(-c3ccc(F)cc3)c(-c3ncc[nH]3)c2cc1C1CC1 [Example 109, N-[5-cyclopropyl-2-(4-fluorophenyl)-3-(1H-imidazol-2-yl)-1-benzofuran-6-yl]-N-(2-hydroxyethyl)methanesulfonamide]
- IC50 [1]: 5.9 nM
- C316Y/1a Fold Resistance [2]: 90 fold
- IC50 [3]: 61.7 nM
- EC50 [4, 6]: 184 nM
- EC50 [4, 7]: 12.7 nM
- EC50 [4, 8]: 12.7 nM

SMILES: CS(=O)(=O)N(CCO)c1cc2oc(-c3ccc(F)cc3)c(C3=NOCCN3)c2cc1C1CC1 [Example 136, N-[5-cyclopropyl-3-(5,6-dihydro-4H-1,2,4-oxadiazin-3-yl)-2-(4-fluorophenyl)-1-benzofuran-6-yl]-N-(2-hydroxyethyl)methanesulfonamide]
- IC50 [1]: 6.4 nM
- C316Y/1a Fold Resistance [2]: 40 fold
- IC50 [3]: 200 nM
- EC50 [4, 6]: 281 nM
- EC50 [4, 7]: 35 nM
- EC50 [4, 8]: 35 nM

SMILES: CCCC/C=C/c1ccc(-c2oc3cc(N(CCCCS(C)(=O)=O)S(C)(=O)=O)c(C4CC4)cc3c2-c2ncc[nH]2)cc1 [Example 168, N-[5-cyclopropyl-2-{4-[(1E)-hex-1-en-1-yl]phenyl}-3-(1H-imidazol-2-yl)-1-benzofuran-6-yl]-N-[4-(methylsulfonyl)butyl]methanesulfonamide]
- IC50 [1]: 4.9 nM
- C316Y/1a Fold Resistance [2]: 2 fold
- IC50 [3]: 39.2 nM
- EC50 [5, 9]: 24.3 nM
- EC50 [5, 10]: 3.4 nM
- EC50 [5, 11]: 3.4 nM

SMILES: CS(=O)(=O)CCCCN(c1cc2oc(-c3ccc(Nc4ccccc4)cc3)c(-c3ncc[nH]3)c2cc1C1CC1)S(C)(=O)=O [Example 169, N-[2-(4-anilinophenyl)-5-cyclopropyl-3-(1H-imidazol-2-yl)-1-benzofuran-6-yl]-N-[4-(methylsulfonyl)butyl]methanesulfonamide]
- IC50 [1]: 6 nM
- C316Y/1a Fold Resistance [2]: 3 fold
- IC50 [3]: 39.1 nM
- EC50 [5, 9]: 34.4 nM
- EC50 [5, 10]: 5 nM
- EC50 [5, 11]: 4.5 nM
